We go through 24 molecules from patent publication US10669261B2, “Heteroarylhydroxypyrimidinones as agonists of the APJ receptor” (BRISTOL-MYERS SQUIBB COMPANY, priority 2015, dated 2020).

The first assay addresses T1, human APJ receptor (Homo sapiens, UniProt P35414).
T1 construct: expressed in transfected cells
T1 sequence (P35414 1-380): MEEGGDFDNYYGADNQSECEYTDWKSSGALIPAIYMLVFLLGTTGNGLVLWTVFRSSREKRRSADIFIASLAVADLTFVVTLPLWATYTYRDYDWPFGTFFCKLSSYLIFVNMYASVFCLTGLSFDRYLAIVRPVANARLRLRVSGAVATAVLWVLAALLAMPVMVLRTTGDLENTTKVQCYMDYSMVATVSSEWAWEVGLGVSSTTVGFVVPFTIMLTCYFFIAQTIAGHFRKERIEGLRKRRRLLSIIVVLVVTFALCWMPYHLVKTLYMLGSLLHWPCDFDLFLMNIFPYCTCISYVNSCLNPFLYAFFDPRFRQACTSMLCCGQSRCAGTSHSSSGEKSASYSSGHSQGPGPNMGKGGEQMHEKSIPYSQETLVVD
Kind of assay: Intracellular cAMP accumulation assay (APJ hcAMP, HTRF). It counts as cell-based. The following applies: HEK293 cells stably expressing human APJ receptor; inhibition of forskolin-mediated cAMP production; stated at end of example; read-out: Human APJ cAMP Potency Range. The method, then: Intracellular cAMP Accumulation Assay
HEK293 cells stably expressing human APJ receptor were used to assess the activity of compounds. Cultured cells were detached and resuspended in the cAMP Homogeneous Time-Resolved Fluorescence (HTRF) assay buffer (Cisbio cat; #62AM4PEJ). The assay was performed in 384-well assay plates (Perkin-Elmer; cat #6008289) according to assay protocol provided by the manufacturer. Serial dilutions of a compound together with assay buffer containing […] IBMX and 2 μM forskolin were added to each well containing 5,000 cells and incubated for 30 minutes at room temperature. Subsequently, cAMP D2 reagent was added in the lysis buffer followed by the EuK antibody (Cisbio; cat #62AM4PEJ) and incubated for 60 min. The fluorescence emission ratio was measured using fluorometer. The intracellular cAMP concentrations (compound-stimulated inhibition of forskolin-mediated cAMP production) were calculated by extrapolation from a standard curve using known cAMP concentrations. The EC50 values were obtained by fitting the data to a sigmoidal concentration-response curve with variable slope. The maximal achievable inhibition of forskolin-induced cAMP levels (Ymax) for each compound was expressed as relative percentage of inhibition attained using pyroglutamated apelin-13 ((Pyr1)apelin-13) peptide, which was set to 100%.
The examples disclosed below were tested in the APJ in vitro assays described above and were found having human APJ cyclic AMP (hcAMP) activity. The EC50 value of each compound is presented at the end of the example description.
The biological activity of the exemplified compounds of this invention determined by the assay described above is shown at the end of each example.
A general note: Cyclic AMP is a second messenger, typically raised through Gs and lowered through Gi signalling.
`CCCCc1nc(=O)c(-c2nnc(Cc3noc4ccccc34)o2)c(O)n1-c1c(C2CC2)cccc1C1CC1` [Example 27, 5-(5-(Benzo[d]isoxazol-3-ylmethyl)-1,3,4-oxadiazol-2-yl)-2-butyl-1-(2,6-dicyclopropylphenyl)-6-hydroxypyrimidin-4(1H)-one]: the EC50 was 0.01 to 10 nM.

For the molecule `CCCCc1nc(=O)c(-c2nnc(Cc3noc4ccccc34)o2)c(O)n1-c1c(C#N)cccc1C#N` [Example 28, 2-(5-(5-(Benzo[d]isoxazol-3-ylmethyl)-1,3,4-oxadiazol-2-yl)-2-butyl-6-hydroxy-4-oxopyrimidin-1 (4H)-yl)isophthalonitrile], the EC50 was 10 to 100 nM.

Turning to `CCCCc1nc(=O)c(-c2nnc(Cc3ccc(Cl)cc3)o2)c(O)n1-c1c(OC2CC2)cccc1OC1CC1` [Example 29, 2-butyl-5-(5-(4-chlorobenzyl)-1,3,4-oxadiazol-2-yl)-1-(2,6-dicyclopropoxyphenyl)-6-hydroxypyrimidin-4(1H)-one], the EC50 lay within 10 to 100 nM.

Consider `CCCCc1nc(O)c(-c2cnn(Cc3ccccc3)c2)c(=O)n1-c1c(OC)cccc1OC` [Example 31, 5-(1-benzyl-1H-pyrazol-4-yl)-2-butyl-3-(2,6-dimethoxyphenyl)-6-hydroxypyrimidin-4(3H)-one], for which the EC50 is 0.01 to 10 nM.

On to `CCOCc1nc(=O)c(-c2nnc(Cc3noc4ccccc34)o2)c(O)n1-c1c(OC)cccc1OC` [Example 33, 5-(5-(benzo[d]isoxazol-3-ylmethyl)-1,3,4-oxadiazol-2-yl)-1-(2,6-dimethoxyphenyl)-6-hydroxy-2-(ethoxymethyl)pyrimidin-4(1H)-one], for which the EC50 fell in the range of 0.01 to 10 nM.

As to `COc1cccc(OC)c1-n1c(CCC2CC2)nc(=O)c(-c2nnc(Cc3noc4ccccc34)o2)c1O` [Example 42, 5-(5-(benzo[d]isoxazol-3-ylmethyl)-1,3,4-oxadiazol-2-yl)-2-(2-cyclopropylethyl)-1-(2,6-dimethoxyphenyl)-6-hydroxypyrimidin-4(1H)-one], the EC50 lay within 0.01 to 10 nM.

The same assay, now with this note: Table 1; HEK293 cells stably expressing human APJ receptor; read-out: hAPJ cAMP EC50 Potency range.
Regarding `CCCCc1nc(=O)c(-c2nnc(Cc3noc4ccccc34)o2)c(O)n1-c1c(OC(C)C)cccc1OC(C)C` [Example 24, 5-[5-(1,2-benzoxazol-3-ylmethyl)-1,3,4-oxadiazol-2-yl]-1-[2,6-bis(propan-2-yloxy)phenyl]-2-butyl-6-hydroxy-1,4-dihydropyrimidin-4-one], the EC50 was in the range of 100 to 300 nM.

Consider `CCCCc1nc(=O)c(-c2nnc(Cc3csc(C)n3)o2)c(O)n1-c1c(OCC)cccc1OCC` [Example 25, 2-butyl-1-(2,6-diethoxyphenyl)-6-hydroxy-5-{5-[(2-methyl-1,3-thiazol-4-yl)methyl]-1,3,4-oxadiazol-2-yl}-1,4-dihydropyrimidin-4-one], for which the EC50 fell in the range of 0.01 to 10 nM.

For the molecule `CCCCc1nc(=O)c(-c2nnc(Cc3ccc(Cl)cc3)o2)c(O)n1-c1c(OCC)cccc1OCC` [Example 26, 2-butyl-5-{5-[(4-chlorophenyl)methyl]-1,3,4-oxadiazol-2-yl}-1-(2,6-diethoxyphenyl)-6-hydroxy-1,4-dihydropyrimidin-4-one], the EC50 is 0.01 to 10 nM.

Regarding `CCCCc1nc(=O)c(-c2nnc(Cc3noc4ccccc34)o2)c(O)n1-c1c(OC2CC2)cccc1OC1CC1` [Example 30, 5-[5-(1,2-benzoxazol-3-ylmethyl)-1,3,4-oxadiazol-2-yl]-2-butyl-1-(2,6-dicyclopropoxyphenyl)-6-hydroxy-1,4-dihydropyrimidin-4-one], the EC50 lay within 0.01 to 10 nM.

As for `CCCCc1nc(O)c(-c2cnn(Cc3ccc(Cl)cc3)c2)c(=O)n1-c1c(OC)cccc1OC` [Example 32, 2-butyl-5-{1-[(4-chlorophenyl)methyl]-1H-pyrazol-4-yl}-3-(2,6-dimethoxyphenyl)-6-hydroxy-3,4-dihydropyrimidin-4-one], the EC50 is 0.01 to 10 nM.

Regarding `COc1cccc(OC)c1-n1c(COC(C)C)nc(=O)c(-c2nnc(Cc3noc4ccccc34)o2)c1O` [Example 34, 5-[5-(1,2-benzoxazol-3-ylmethyl)-1,3,4-oxadiazol-2-yl]-1-(2,6-dimethoxyphenyl)-6-hydroxy-2-[(propan-2-yloxy)methyl]-1,4-dihydropyrimidin-4-one], the EC50 lay within 0.01 to 10 nM.

Regarding `CCOCc1nc(=O)c(-c2nnc(Cc3noc4ccccc34)o2)c(O)n1-c1c(CC)cccc1CC` [Example 35, 5-[5-(1,2-benzoxazol-3-ylmethyl)-1,3,4-oxadiazol-2-yl]-1-(2,6-diethylphenyl)-2-(ethoxymethyl)-6-hydroxy-1,4-dihydropyrimidin-4-one], the EC50 fell in the range of 0.01 to 10 nM.

Turning to `COc1cccc(OC)c1-n1c(COC(C)C)nc(=O)c(-c2nnc(Cc3ccc(Cl)cc3)o2)c1O` [Example 36, 5-{5-[(4-chlorophenyl)methyl]-1,3,4-oxadiazol-2-yl}-1-(2,6-dimethoxyphenyl)-6-hydroxy-2-[(propan-2-yloxy)methyl]-1,4-dihydropyrimidin-4-one], the EC50 fell in the range of 0.01 to 10 nM.

Consider `CCOCc1nc(=O)c(-c2nnc(Cc3ccc(Cl)cc3)o2)c(O)n1-c1c(CC)cccc1CC` [Example 37, 5-{5-[(4-chlorophenyl)methyl]-1,3,4-oxadiazol-2-yl}-1-(2,6-diethylphenyl)-2-(ethoxymethyl)-6-hydroxy-1,4-dihydropyrimidin-4-one], for which the EC50 lay within 0.01 to 10 nM.

Take `CCOCc1nc(=O)c(-c2nnc(Cc3ccc(Cl)c(F)c3)o2)c(O)n1-c1c(OC)cccc1OC` [Example 38, 5-{5-[(4-chloro-3-fluorophenyl)methyl]-1,3,4-oxadiazol-2-yl}-1-(2,6-dimethoxyphenyl)-2-(ethoxymethyl)-6-hydroxy-1,4-dihydropyrimidin-4-one]: the EC50 lay within 0.01 to 10 nM.

Consider `CCOCc1nc(=O)c(-c2nnc(Cc3csc(-c4ccccc4)n3)o2)c(O)n1-c1c(OC)cccc1OC` [Example 39, 1-(2,6-dimethoxyphenyl)-2-(ethoxymethyl)-6-hydroxy-5-{5-[(2-phenyl-1,3-thiazol-4-yl)methyl]-1,3,4-oxadiazol-2-yl}-1,4-dihydropyrimidin-4-one], for which the EC50 lay within 10 to 100 nM.

Regarding `CCOCc1nc(=O)c(-c2nnc(Cc3ccc(Cl)cc3)o2)c(O)n1-c1c(OC)cccc1OC` [Example 40, 5-{5-[(4-chlorophenyl)methyl]-1,3,4-oxadiazol-2-yl}-1-(2,6-dimethoxyphenyl)-2-(ethoxymethyl)-6-hydroxy-1,4-dihydropyrimidin-4-one], the EC50 lay in the range of 0.01 to 10 nM.

Take `CC(C)OCc1nc(=O)c(-c2nnc(Cc3noc4ccccc34)o2)c(O)n1-c1c(C2CC2)cccc1C1CC1` [Example 41, 5-[5-(1,2-benzoxazol-3-ylmethyl)-1,3,4-oxadiazol-2-yl]-1-(2,6-dicyclopropylphenyl)-6-hydroxy-2-[(propan-2-yloxy)methyl]-1,4-dihydropyrimidin-4-one]: the EC50 fell in the range of 0.01 to 10 nM.

Consider `COc1cccc(OC)c1-n1c(CCC2CC2)nc(=O)c(-c2nnc(CN3CCCC3=O)o2)c1O` [Example 43, 2-(2-cyclopropylethyl)-1-(2,6-dimethoxyphenyl)-6-hydroxy-5-{5-[(2-oxopyrrolidin-1-yl)methyl]-1,3,4-oxadiazol-2-yl}-1,4-dihydropyrimidin-4-one], for which the EC50 lay in the range of 0.01 to 10 nM.

For `COc1cccc(OC)c1-n1c(CCC2CC2)nc(=O)c(-c2nnc(Cc3csc(C)n3)o2)c1O` [Example 44, 2-(2-cyclopropylethyl)-1-(2,6-dimethoxyphenyl)-6-hydroxy-5-{5-[(2-methyl-1,3-thiazol-4-yl)methyl]-1,3,4-oxadiazol-2-yl}-1,4-dihydropyrimidin-4-one], the EC50 was 0.01 to 10 nM.

`COc1cccc(OC)c1-n1c(CCC2CC2)nc(=O)c(-c2nnc(Cc3ccc(Cl)cc3)o2)c1O` [Example 45, 5-{5-[(4-chlorophenyl)methyl]-1,3,4-oxadiazol-2-yl}-2-(2-cyclopropylethyl)-1-(2,6-dimethoxyphenyl)-6-hydroxy-1,4-dihydropyrimidin-4-one]: the EC50 lay within 0.01 to 10 nM.

Consider `COc1cccc(OC)c1-n1c(CCC2CC2)nc(=O)c(-c2nnc(Cn3ccccc3=O)o2)c1O` [Example 46, 2-(2-cyclopropylethyl)-1-(2,6-dimethoxyphenyl)-6-hydroxy-5-{5-[(2-oxo-1,2-dihydropyridin-1-yl)methyl]-1,3,4-oxadiazol-2-yl}-1,4-dihydropyrimidin-4-one], for which the EC50 was in the range of 0.01 to 10 nM.

With `COc1cccc(OC)c1-n1c(CCC2CC2)nc(=O)c(-c2nnc(CN3CCOCC3=O)o2)c1O` [Example 47, 4-({5-[2-(2-cyclopropylethyl)-1-(2,6-dimethoxyphenyl)-6-hydroxy-4-oxo-1,4-dihydropyrimidin-5-yl]-1,3,4-oxadiazol-2-yl}methyl)morpholin-3-one], the EC50 is 0.01 to 10 nM.
